# Values quoted from earlier work in patent US7847120B2, “Compositions of allosteric hemoglobin modifiers and methods of making the same” (Virginia Commonwealth University Intellectual Property …, priority 2004, dated 2010).
# Assays:
# tissue oxygenation = details: in vivo
# [1] = tested on: EMT6 mouse mammary tumors; details: efaproxiral plus oxygen breathing, Rockwell and Kelley 1998
# mouse fibrosarcoma tumor = details: combination of efaproxiral and radiation relative to radiation alone
structure (smiles),measurement,setting,value
"Cc1cc(C)cc(NC(=O)Cc2ccc(OC(C)(C)C(=O)O)cc2)c1 [efaproxiral, 2-[4-((((3,5-dimethylphenyl)amino)carbonyl)methyl)phenoxy]-2-methyl propionic acid]",tissue oxygenation,tissue oxygenation,enhance tissue oxygenation in vivo
same,effect of radiation in tumors,[1]; EMT6 mouse mammary tumors,Enhancement of the effect of radiation was observed
same,radiation effects in normal tissues,[1]; normal tissues,absence of enhanced radiation effects
same,tumor growth,mouse fibrosarcoma tumor,reduced
